# Read-outs that look alike come from different tables or passages of the source.
# What was measured:
# [1] = test system: MRSE; assay: MIC, two-fold serial dilution method; format: cell-based, Methicillin-resistant Staphylococcus epidermidis; settings: for MIC: Staphylococcus epidermidis, read-out: minimum inhibitory concentration
# Procedure: (§1) The pleuromutilin derivatives 1-4 prepared from Example 9 of the present disclosure were determined for their effect on Methicillin-resistant Staphylococcus aureus, Methicillin-resistant Staphylococcus epidermidis, standard strains of Staphylococcus aureus (S. aureus-29213 and S. aureus-25923), clinical strains 1-48 of S. aureus, Escherichia coli, S. agalactiae and S. dysgalactiae equisimilis (S. dysgalactiae-1, S. dysgalactiae-2, S. dysgalactiae-3) and minimum inhibitory concentration (MIC) using a two-fold serial dilution method, and the results were shown in Table 1, Table 2 and Table 3. The standard strains are commercially available from ATCC, and the clinical strains are preserved by Lanzhou Institute of Husbandry and Pharmaceutical Science of Chinese Academy of Agricultural Sciences (Lanzhou, Gansu, China).
# [2] = test system: S. aureus-38; assay: MIC, clinical strain; format: cell-based, Staphylococcus aureus
# Procedure: as §1
# [3] = test system: S. aureus-17; assay: MIC, clinical strain; format: cell-based, Staphylococcus aureus
# Procedure: as §1
# [4] = test system: S. aureus-12; assay: MIC, clinical strain; format: cell-based, Staphylococcus aureus
# Procedure: as §1
# [5] = test system: S. aureus-6; assay: MIC, clinical strain; format: cell-based, Staphylococcus aureus
# Procedure: as §1
# [6] = test system: S. aureus-14; assay: MIC, clinical strain; format: cell-based, Staphylococcus aureus
# Procedure: as §1
# [7] = test system: S. aureus-40; assay: MIC, clinical strain; format: cell-based, Staphylococcus aureus
# Procedure: as §1
# [8] = test system: S. aureus-46; assay: MIC, clinical strain; format: cell-based, Staphylococcus aureus
# Procedure: as §1
# [9] = test system: S. aureus-22; assay: MIC, clinical strain; format: cell-based, Staphylococcus aureus
# Procedure: as §1
# [10] = test system: S. aureus-42; assay: MIC, clinical strain; format: cell-based, Staphylococcus aureus
# Procedure: as §1
# [11] = test system: S. aureus-31; assay: MIC, clinical strain; format: cell-based, Staphylococcus aureus
# Procedure: as §1
# [12] = test system: S. aureus-15; assay: MIC, clinical strain; format: cell-based, Staphylococcus aureus
# Procedure: as §1
# [13] = test system: S. aureus-5; assay: MIC, clinical strain; format: cell-based, Staphylococcus aureus
# Procedure: as §1
# [14] = test system: S. aureus-20; assay: MIC, clinical strain; format: cell-based, Staphylococcus aureus
# Procedure: as §1
# [15] = test system: S. aureus-35; assay: MIC, clinical strain; format: cell-based, Staphylococcus aureus
# Procedure: as §1
# [16] = test system: S. aureus-34; assay: MIC, clinical strain; format: cell-based, Staphylococcus aureus
# Procedure: as §1
# [17] = test system: S. aureus-47; assay: MIC, clinical strain; format: cell-based, Staphylococcus aureus
# Procedure: as §1
# [18] = test system: S. aureus-16; assay: MIC, clinical strain; format: cell-based, Staphylococcus aureus
# Procedure: as §1
# [19] = test system: S. aureus-3; assay: MIC, clinical strain; format: cell-based, Staphylococcus aureus
# Procedure: as §1
# [20] = test system: S. aureus-9; assay: MIC, clinical strain; format: cell-based, Staphylococcus aureus
# Procedure: as §1
# [21] = test system: S. aureus-2; assay: MIC, clinical strain; format: cell-based, Staphylococcus aureus
# Procedure: as §1
# [22] = test system: S. aureus-10; assay: MIC, clinical strain; format: cell-based, Staphylococcus aureus
# Procedure: as §1
# [23] = test system: S. aureus-7; assay: MIC, clinical strain; format: cell-based, Staphylococcus aureus
# Procedure: as §1
# [24] = test system: S. aureus-24; assay: MIC, clinical strain; format: cell-based, Staphylococcus aureus
# Procedure: as §1
# [25] = test system: S. aureus-37; assay: MIC, clinical strain; format: cell-based, Staphylococcus aureus
# Procedure: as §1
# [26] = test system: S. aureus-43; assay: MIC, clinical strain; format: cell-based, Staphylococcus aureus
# Procedure: as §1
# [27] = test system: S. aureus-36; assay: MIC, clinical strain; format: cell-based, Staphylococcus aureus
# Procedure: as §1
# [28] = test system: S. aureus-27; assay: MIC, clinical strain; format: cell-based, Staphylococcus aureus
# Procedure: as §1
# [29] = test system: S. aureus-21; assay: MIC, clinical strain; format: cell-based, Staphylococcus aureus
# Procedure: as §1
# [30] = test system: S. aureus-33; assay: MIC, clinical strain; format: cell-based, Staphylococcus aureus
# Procedure: as §1
# [31] = test system: S. aureus-28; assay: MIC, clinical strain; format: cell-based, Staphylococcus aureus
# Procedure: as §1
# [32] = test system: S. aureus-32; assay: MIC, clinical strain; format: cell-based, Staphylococcus aureus
# Procedure: as §1
# [33] = test system: S. aureus-39; assay: MIC, clinical strain; format: cell-based, Staphylococcus aureus
# Procedure: as §1
# [34] = test system: S. aureus-45; assay: MIC, clinical strain; format: cell-based, Staphylococcus aureus
# Procedure: as §1
# [35] = test system: S. aureus-29; assay: MIC, clinical strain; format: cell-based, Staphylococcus aureus
# Procedure: as §1
# [36] = test system: S. aureus-30; assay: MIC, clinical strain; format: cell-based, Staphylococcus aureus
# Procedure: as §1
# [37] = test system: S. aureus-1; assay: MIC, clinical strain; format: cell-based, Staphylococcus aureus
# Procedure: as §1
# [38] = test system: S. aureus-41; assay: MIC, clinical strain; format: cell-based, Staphylococcus aureus
# Procedure: as §1
# [39] = test system: S. aureus-19; assay: MIC, clinical strain; format: cell-based, Staphylococcus aureus
# Procedure: as §1
# [40] = test system: S. aureus-26; assay: MIC, clinical strain; format: cell-based, Staphylococcus aureus
# Procedure: as §1
# [41] = test system: S. aureus-8; assay: MIC, clinical strain; format: cell-based, Staphylococcus aureus
# Procedure: as §1
# [42] = test system: S. aureus-23; assay: MIC, clinical strain; format: cell-based, Staphylococcus aureus
# Procedure: as §1
structure (smiles),measurement,setting,value
C=CC1(C)CC(OC(=O)CSC(C)(C)CNC(=O)C2CCC2)C2(C)C(C)CCC3(CCC(=O)C32)C(C)C1O (stereo not drawn) [derivative 2],minimum inhibitory concentration,[1],0.031 µg/mL
same,in vitro minimum inhibitory concentration,[2],0.016
same,in vitro minimum inhibitory concentration,[3],0.063
same,in vitro minimum inhibitory concentration,[4],0.031
same,in vitro minimum inhibitory concentration,[5],0.031
same,in vitro minimum inhibitory concentration,[6],0.063
same,in vitro minimum inhibitory concentration,[7],0.016
same,in vitro minimum inhibitory concentration,[8],0.063
same,in vitro minimum inhibitory concentration,[9]; in µg/mL,0.063
same,in vitro minimum inhibitory concentration,[10],0.063
same,in vitro minimum inhibitory concentration,[11],0.031
same,in vitro minimum inhibitory concentration,[12]; in µg/mL,0.031
same,in vitro minimum inhibitory concentration,[13],0.031
same,in vitro minimum inhibitory concentration,[14]; in µg/mL,0.063
same,in vitro minimum inhibitory concentration,[15],0.125
same,in vitro minimum inhibitory concentration,[16],0.063
same,in vitro minimum inhibitory concentration,[17],0.063
same,in vitro minimum inhibitory concentration,[18],0.031
same,in vitro minimum inhibitory concentration,[19],0.031
same,in vitro minimum inhibitory concentration,[20],0.063
same,in vitro minimum inhibitory concentration,[21],0.063
same,in vitro minimum inhibitory concentration,[22],0.063
same,in vitro minimum inhibitory concentration,[23],0.063
same,in vitro minimum inhibitory concentration,[24],0.063
same,in vitro minimum inhibitory concentration,[25],0.063
same,in vitro minimum inhibitory concentration,[26],0.016
same,in vitro minimum inhibitory concentration,[27],0.016
same,in vitro minimum inhibitory concentration,[28],0.031
same,in vitro minimum inhibitory concentration,[29]; in µg/mL,0.063
same,in vitro minimum inhibitory concentration,[30],0.031
same,in vitro minimum inhibitory concentration,[31],0.063
same,in vitro minimum inhibitory concentration,[32],0.063
same,in vitro minimum inhibitory concentration,[33],0.016
same,in vitro minimum inhibitory concentration,[34],0.125
same,in vitro minimum inhibitory concentration,[35],0.031
same,in vitro minimum inhibitory concentration,[36],0.031
same,in vitro minimum inhibitory concentration,[37]; in µg/mL,0.125
same,in vitro minimum inhibitory concentration,[38],0.031
same,in vitro minimum inhibitory concentration,[39],0.125
same,in vitro minimum inhibitory concentration,[40],0.063
same,in vitro minimum inhibitory concentration,[41],0.063
same,in vitro minimum inhibitory concentration,[42],0.063
C=C[C@]1(C)C[C@@H](OC(=O)CSCCN(CC)CC)[C@]2(C)[C@H](C)CC[C@]3(CCC(=O)[C@H]32)[C@@H](C)[C@@H]1O [Tiamulin],MIC,[1],0.5 µg/mL
same,in vitro minimum inhibitory concentration,[2],0.5
same,in vitro minimum inhibitory concentration,[3],0.5
same,in vitro minimum inhibitory concentration,[4],0.5
same,in vitro minimum inhibitory concentration,[5],0.25
same,in vitro minimum inhibitory concentration,[6],0.5
same,in vitro minimum inhibitory concentration,[7],1
same,in vitro minimum inhibitory concentration,[8],1
same,in vitro minimum inhibitory concentration,[9],0.5 µg/mL
same,in vitro minimum inhibitory concentration,[10],0.5
same,in vitro minimum inhibitory concentration,[11],0.5
same,in vitro minimum inhibitory concentration,[12],0.5 µg/mL
same,in vitro minimum inhibitory concentration,[13],0.5
same,in vitro minimum inhibitory concentration,[14],0.5 µg/mL
same,in vitro minimum inhibitory concentration,[15],0.5
same,in vitro minimum inhibitory concentration,[16],0.5
same,in vitro minimum inhibitory concentration,[17],0.5
same,in vitro minimum inhibitory concentration,[18],0.5
same,in vitro minimum inhibitory concentration,[19],0.5
same,in vitro minimum inhibitory concentration,[20],0.5
same,in vitro minimum inhibitory concentration,[21],0.5
same,in vitro minimum inhibitory concentration,[22],0.5
same,in vitro minimum inhibitory concentration,[23],1
same,in vitro minimum inhibitory concentration,[24],0.25
same,in vitro minimum inhibitory concentration,[25],0.5
same,in vitro minimum inhibitory concentration,[26],1
same,in vitro minimum inhibitory concentration,[27],0.25
same,in vitro minimum inhibitory concentration,[28],0.5
same,in vitro minimum inhibitory concentration,[29],0.5 µg/mL
same,in vitro minimum inhibitory concentration,[30],1
same,in vitro minimum inhibitory concentration,[31],1
same,in vitro minimum inhibitory concentration,[32],1
same,in vitro minimum inhibitory concentration,[33],0.25
same,in vitro minimum inhibitory concentration,[34],1
same,in vitro minimum inhibitory concentration,[35],1
same,in vitro minimum inhibitory concentration,[36],0.5
same,in vitro minimum inhibitory concentration,[37],0.5 µg/mL
same,in vitro minimum inhibitory concentration,[38],0.5
same,in vitro minimum inhibitory concentration,[39],0.5
same,in vitro minimum inhibitory concentration,[40],0.5
same,in vitro minimum inhibitory concentration,[41],0.5
same,in vitro minimum inhibitory concentration,[42],0.5
C=C[C@]1(C)C[C@@H](OC(=O)CSC(C)(C)CNC(=O)[C@H](N)C(C)C)[C@]2(C)[C@H](C)CC[C@]3(CCC(=O)[C@H]32)[C@@H](C)[C@@H]1O [Valnemulin],MIC,[1],0.031 µg/mL
same,in vitro minimum inhibitory concentration,[2],0.063
same,in vitro minimum inhibitory concentration,[3],0.063
same,in vitro minimum inhibitory concentration,[4],0.031
same,in vitro minimum inhibitory concentration,[5],0.063
same,in vitro minimum inhibitory concentration,[6],0.125
same,in vitro minimum inhibitory concentration,[7],0.063
same,in vitro minimum inhibitory concentration,[8],0.063
same,in vitro minimum inhibitory concentration,[9],0.25 µg/mL
same,in vitro minimum inhibitory concentration,[10],0.063
same,in vitro minimum inhibitory concentration,[11],0.063
same,in vitro minimum inhibitory concentration,[12]; in µg/mL,0.063
same,in vitro minimum inhibitory concentration,[13],0.063
same,in vitro minimum inhibitory concentration,[14]; in µg/mL,0.125
same,in vitro minimum inhibitory concentration,[15],0.063
same,in vitro minimum inhibitory concentration,[16],0.063
same,in vitro minimum inhibitory concentration,[17],0.063
same,in vitro minimum inhibitory concentration,[18],0.063
same,in vitro minimum inhibitory concentration,[19],0.063
same,in vitro minimum inhibitory concentration,[20],0.063
same,in vitro minimum inhibitory concentration,[21],0.25
same,in vitro minimum inhibitory concentration,[22],0.063
same,in vitro minimum inhibitory concentration,[23],0.063
same,in vitro minimum inhibitory concentration,[24],0.063
same,in vitro minimum inhibitory concentration,[25],0.063
same,in vitro minimum inhibitory concentration,[26],0.063
same,in vitro minimum inhibitory concentration,[27],0.063
same,in vitro minimum inhibitory concentration,[28],0.063
same,in vitro minimum inhibitory concentration,[29]; in µg/mL,0.125
same,in vitro minimum inhibitory concentration,[30],0.063
same,in vitro minimum inhibitory concentration,[31],0.063
same,in vitro minimum inhibitory concentration,[32],0.063
same,in vitro minimum inhibitory concentration,[33],0.125
same,in vitro minimum inhibitory concentration,[34],0.25
same,in vitro minimum inhibitory concentration,[35],0.063
same,in vitro minimum inhibitory concentration,[36],0.063
same,in vitro minimum inhibitory concentration,[37],0.25 µg/mL
same,in vitro minimum inhibitory concentration,[38],0.063
same,in vitro minimum inhibitory concentration,[39],0.063
same,in vitro minimum inhibitory concentration,[40],0.063
same,in vitro minimum inhibitory concentration,[41],0.063
same,in vitro minimum inhibitory concentration,[42],0.063
